The source of these data is patent US9018261B2, “Choline salt of an anti-inflammatory substituted cyclobutenedione compound” (Novartis AG, priority 2011, dated 2015).

Where a name gives a salt, the structure may show the parent alone.

A short description of series [1]: pharmacokinetic study in male beagle dogs (plasma concentrations). The following applies: dog, in vivo, 0.3 mg/kg.
Series [2] can be described thus: hygroscopicity (amount of water absorbed). It counts as physicochemical. From the text:
Furthermore, the hygroscopicity of the choline salt is much reduced compared with the free acid. The amount of water absorbed by the free acid is 2.4% and 2.8% by weight after 1 day at 80% and 92% humidity, respectively, and the amount of water absorbed by the choline salt is 0.7% and 0.6% by weight after 1 day at 80% and 92% humidity, respectively.

The nature of series [3]: solubility in simulated gastric fluid. It counts as physicochemical.
Series [4] in a line: conversion into free acid form in gastric acidic conditions. It is filed as physicochemical. From the text:
The result of this is poor bioavailability of 6-chloro-3-[2-(1-ethyl-propylamino)-3,4-dioxo-cyclobut-1-enylamino]-2-hydroxy-N-methoxy-N-methyl-benzenesulfonamide.

The next series can be described thus: dissolution rate at pH 1. It is filed as physicochemical. The method, then:
(§1) The choline salt has also a much improved dissolution rate at pH 1 and oral exposure when dosed at 10 mg/kg to male SPRAGUE DAWLEY® rats compared to the free acid form.

Series [5] is described as follows: oral exposure in male SPRAGUE DAWLEY rats. It is filed as in vivo. As to conditions: dosed at 10 mg/kg to male SPRAGUE DAWLEY rats. The method, then: as §1
Series [6] in a line: solubility in aqueous solution at pH 1.0-7.0. It is filed as physicochemical. The following applies: aqueous buffer, pH 1.0-7.0, as a free acid. The method, then: [drawing 1] is a weakly acidic compound and is practically insoluble in aqueous solution at pH 1.0-7.0 as a free acid (<0.005 mg/ml).

As a reminder, the solubility is the concentration that dissolves in the medium under given conditions. Low values mean a poorly soluble substance, high ones a readily soluble substance. Regarding `CCC(CC)Nc1c(Nc2ccc(Cl)c(S(=O)(=O)N(C)OC)c2O)c(=O)c1=O` [choline salt, 6-chloro-3-[2-(1-ethyl-propylamino)-3,4-dioxo-cyclobut-1-enylamino]-2-hydroxy-N-methoxy-N-methyl-benzenesulfonamide choline], the “systemic exposure after intravenous administration” value in series [1] stood at 912 ± 126 ng·h/mL. The “amount of water absorbed” value in series [2] (after 1 day at 80% humidity) is reported as 0.7 % by weight; in series [2] (after 1 day at 92% humidity), 0.6 % by weight. The same compound came in with a solubility in series [3] (simulated gastric fluid at pH 1.2) of 8020 µg/mL. For the same compound, the “solubility in simulated gastric fluid compared to other salts” value in series [3] (vs sodium, calcium, N,N-dimethyl-2-aminoethanol and N-(2-hydroxyethyl)pyrrolidine salts) is listed as “significantly improved”. Also, in series [4], the “conversion into the free acid form” value is on record as “readily converts”. Also, the “dissolution rate compared to the free acid form” value in the series “dissolution rate at pH 1” is reported as “much improved”. The “oral exposure compared to the free acid form” value in series [5] is reported as “much improved”.
Regarding `CCC(CC)Nc1c(Nc2ccc(Cl)c(S(=O)(=O)N(C)OC)c2O)c(=O)c1=O` [free acid, 6-chloro-3-[2-(1-ethyl-propylamino)-3,4-dioxo-cyclobut-1-enylamino]-2-hydroxy-N-methoxy-N-methyl-benzenesulfonamide], the figures for the “amount of water absorbed” value in series [2] (after 1 day at 80% humidity) and in series [2] (after 1 day at 92% humidity) were 2.4 % by weight and 2.8 % by weight, respectively. In series [6], this compound showed a solubility of less than 5 µg/mL.
